The target of data set [1] is T1, ATP-dependent translocase ABCB1 (Mus musculus, UniProt P06795). Put plainly: Inhibition of P-glycoprotein in MDR mouse T lymphoma cells using rhodamine 123 assessed as ratio of fluorescent uptake relative to untreated control at 1 uM in MDR reversal assay by flow cytometry. Type of data set: cell-based. In general terms: In flow cytometry, cells or beads pass a laser one at a time.

Data set [2] deals with T1, ATP-dependent translocase ABCB1. Kind of data set: Inhibition of P-glycoprotein in MDR mouse T lymphoma cells using rhodamine 123 assessed as ratio of fluorescent uptake relative to untreated control at 10 uM in MDR reversal assay by flow cytometry. In kind it is cell-based.

T1 sequence (P06795 whole entry): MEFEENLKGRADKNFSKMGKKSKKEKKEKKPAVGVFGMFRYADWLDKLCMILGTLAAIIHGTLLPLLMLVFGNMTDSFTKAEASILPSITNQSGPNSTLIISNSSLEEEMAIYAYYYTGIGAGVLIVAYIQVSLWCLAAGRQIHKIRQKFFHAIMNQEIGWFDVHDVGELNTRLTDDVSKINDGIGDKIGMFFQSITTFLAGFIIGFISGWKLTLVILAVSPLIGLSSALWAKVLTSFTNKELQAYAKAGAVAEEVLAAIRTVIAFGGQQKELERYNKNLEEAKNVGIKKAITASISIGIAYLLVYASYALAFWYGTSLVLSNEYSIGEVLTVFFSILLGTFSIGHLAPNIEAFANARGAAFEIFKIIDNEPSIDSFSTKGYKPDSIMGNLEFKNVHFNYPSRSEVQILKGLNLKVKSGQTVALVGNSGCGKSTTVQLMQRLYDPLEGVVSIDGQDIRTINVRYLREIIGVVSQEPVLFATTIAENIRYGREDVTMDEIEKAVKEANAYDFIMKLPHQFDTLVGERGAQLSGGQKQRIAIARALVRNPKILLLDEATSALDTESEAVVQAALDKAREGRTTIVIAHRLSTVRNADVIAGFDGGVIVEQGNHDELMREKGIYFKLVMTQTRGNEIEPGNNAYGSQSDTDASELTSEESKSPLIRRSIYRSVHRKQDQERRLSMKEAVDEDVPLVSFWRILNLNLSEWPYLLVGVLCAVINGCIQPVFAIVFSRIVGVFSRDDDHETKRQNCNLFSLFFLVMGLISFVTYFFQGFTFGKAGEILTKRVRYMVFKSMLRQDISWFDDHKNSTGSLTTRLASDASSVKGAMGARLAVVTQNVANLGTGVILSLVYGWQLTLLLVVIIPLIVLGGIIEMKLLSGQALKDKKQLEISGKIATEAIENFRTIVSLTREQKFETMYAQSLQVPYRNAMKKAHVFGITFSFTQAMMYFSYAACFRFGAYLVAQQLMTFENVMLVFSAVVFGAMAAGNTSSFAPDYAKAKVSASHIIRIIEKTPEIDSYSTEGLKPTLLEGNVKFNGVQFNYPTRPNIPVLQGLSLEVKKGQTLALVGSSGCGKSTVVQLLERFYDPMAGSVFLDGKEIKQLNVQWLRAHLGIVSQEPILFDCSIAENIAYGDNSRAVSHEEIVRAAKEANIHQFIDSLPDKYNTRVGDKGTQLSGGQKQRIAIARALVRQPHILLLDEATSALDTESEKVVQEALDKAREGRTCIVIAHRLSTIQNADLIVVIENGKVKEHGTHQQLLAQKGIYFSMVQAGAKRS

As to `CCOC(=O)C1=CN(C(=O)Oc2ccccc2)C=CC1c1ccc(OC)cc1` (configuration not stated), the Activity was 1.3 in data set [1] and 19.87 in data set [2].

Take `COc1ccccc1C1C=CN(C(=O)Oc2ccccc2)C=C1C(C)=O` (configuration not stated): the Activity worked out at 1.01 in data set [1] and 5.15 in data set [2].

Consider `CC(=O)C1=CN(C(=O)Oc2ccccc2)C=CC1c1ccc(C)cc1` (configuration not stated), for which the Activity was 1.41 in data set [1] and 3.58 in data set [2].

As for `COc1ccc(C2C=CN(C(=O)Oc3ccccc3)C=C2C(C)=O)cc1` (configuration not stated), the Activity in data set [1] amounted to 1.81; in data set [2], 7.1.

Turning to `CCOC(=O)C1=CN(C(=O)Oc2ccccc2)C=CC1c1ccccc1OC` (configuration not stated), the Activity came out at 1.6 in data set [1] and 39.98 in data set [2].

As to `CCOC(=O)C1=CN(C(=O)Oc2ccccc2)C=CC1c1ccc(C)cc1` (configuration not stated), the results for the Activity in data set [1] and in data set [2] were 1.04 and 3.09, respectively.

The record behind these values is ChEMBL document CHEMBL1143712, “Structure-activity relationships of novel N-acyloxy-1,4-dihydropyridines as P-glycoprotein inhibitors” (Bioorg Med Chem, 2007).
